Measured values from patent publication US11058700B2, “Macrocyclic lactones and uses thereof as modulators of purinergic receptors” (City of Hope, priority 2015, dated 2021).

Legend:
[1] = test system: MDA-MB-231 breast cancer cells; assay: Viability of breast cancer cells compared to normal fibroblasts; format: cell-based; settings: MDA-MB-231 vs normal non-transformed human foreskin fibroblasts (HFFs)
Procedure: (§1) FIGS. 1A-1H. Ivermectin kills breast cancer cells through a mixed apoptotic and necrotic mechanism. FIG. 1A: Mouse (4T1.2) and human (MDA-MB-231) TNBC cells manifest similar sensitivity to Ivermectin. Viability of cells treated with various doses of Ivermectin for 24 h. FIG. 1B: Extended exposure time reduces IC50 values to as low as 2 μM. 4T1.2 cells were seeded at 100 cells/well and individual colonies were counted after a week. Cancer cells were exposed to Ivermectin during the initial 24 h or during the entire duration of the assay. FIG. 1C: MDA-MB-231 breast cancer cells manifest higher sensitivity to Ivermectin compared to normal non-transformed human foreskin fibroblasts (HFFs). FIG. 1D: Flow cytometry analysis showing that cell death proceeds through two distinct pathways: a directly necrotic 7AAD-single positive or Annexin V/PS-single positive apoptotic pathway. FIG. 1E: Kinetics of necrotic versus apoptotic killing of 4T1.2 breast cancer cells. FIG. 1F: Ivermectin-induced cell death can be reversed by inhibition of various controlled cell death pathways. […]
(§2) Cell viability. […] Following treatment the plates were washed once with PBS and cell viability was measured using the acid phosphatase assay. […] Absorption at 405 nm was measured within 10 min using a multi-well plate reader. Mode of cell death and viability of cells in suspension was evaluated using flow cytometry. […]

[2] = test system: breast (MCF7), prostate (DU-145), head and neck (A253), and ovarian (SKOV3) cancer cells; assay: Killing of resistant human cancer cell lines by Ivermectin and ATP; format: cell-based; settings: Ivermectin 16 μM, exogenous ATP 3 mM
Procedure: FIGS. 5A-5E. CaMKII-independent P2X7-mediated killing. FIG. 5A: qPCR showing the extent of gene knockdown in 4T1.2 cells transfected with shRNA targeting the P2X7 receptor versus non-targeting (NT) control (left panel). […] One million wt, shRNA(NT) and shRNA(P2X7) 4T1.2 cells were plated and incubated for 48 h before evaluation of cell numbers and viability. FIG. 5B: P2X7 knockdown cells are more resistant to ATP and the ATP/IVM combo. 4T1.2 cells were treated for 24 h with 1-3 mM ATP, 6-10 μM Ivermectin, or combinations of ATP and Ivermectin. P2X7 knockdown suppresses the synergy between Ivermectin and high dose ATP, as shown by calculation of combination index (CI) values, see Table 2. FIG. 5C: P2X7 knockdown cells are resistant to ATP/Ivermectin induced membrane permeabilization (Asterisk (*) indicates p<0.05). […] FIG. 5E: Comparison of the protective effects of P2X7, CaMKII, and NADPH oxidases inhibition in short-term (4 h, 32 μM IVM) and long-term (24 h, 12 μM IVM) exposure of 4T1.2 cells to Ivermectin. Asterisk (*) indicates p<0.05 relative to Ivermectin alone controls.
as §2

4T1.2 cells = assay: Cell viability (acid phosphatase assay) of cancer cells treated with Ivermectin; format: cell-based, mouse; settings: mouse and human breast cancer cells
Procedure: Cell viability. Cancer cells were plated on 96 well flat-bottom plates and allowed to attach overnight. Cells were then pre-incubated with drugs for 1 h and treated with Ivermectin for 4 h. In the case of 24 h and 48 h incubations the cells, Ivermectin and drugs were plated together. All treatments and controls were done in triplicate wells and results were validated in at least two independent experiments. Following treatment the plates were washed once with PBS and cell viability was measured using the acid phosphatase assay. Briefly, cells were incubated for 1h at 37° C. in 100 μL assay buffer (0.16 M sodium acetate, 0.1% Triton-X-100, supplemented with 4-Nitrophenyl phosphate disodium salt hexahydrate, Sigma Aldrich, at 0.00263 g/ml). Reaction was stopped using 10 μL of 1N sodium hydroxide. Absorption at 405 nm was measured within 10 min using a multi-well plate reader. Mode of cell death and viability of cells in suspension was evaluated using flow cytometry. Briefly, cancer cells were pre-incubated with drugs for 30 min to 1 h, as indicated, treated with Ivermectin for 4 h in 5 ml FACS tubes , washed twice in PBS and stained with PE-conjugated Annexin V and 7AAD (1 μl per 100 μl/200,000 cancer cells) for 15 min.

[3] = test system: 4T1.2 breast cancer cells; assay: Plasma membrane polarization; format: cell-based; settings: mouse 4T1.2 cells
Procedure: Plasma membrane polarization. Cancer cells in suspension were treated with various doses of Ivermectin in the presence of 0.5 μM DiBAC4 (3) (Sigma D8189). Treatments were performed in serum free RPMI medium and cells were analyzed by flow cytometry after 1h of incubation. De-/hyper-polarization results in increased/decreased fluorescence in the GFP channel, respectively.

[4] = test system: 4T1.2 breast cancer cells; assay: Flow cytometry of mode of cell death (Annexin V / 7AAD); format: cell-based, mouse; settings: Ivermectin-treated breast cancer cells
Procedure: as §1, §2

TNBC cells = assay: Extracellular ATP release; format: cell-based, mouse, human
Procedure: FIGS. 3A-3G. Dual roles of ATP and purinergic signaling in Ivermectin's killing. FIG. 3A: Depletion of extracellular ATP with Apyrase (2500 μunits/ml) exacerbates killing of 4T1.2 cell by Ivermectin. FIG. 3B: Extracellular Ca^2− and ATP contain Ivermectin-induced cell swelling. 4T1.2 cells were treated with 32 μM Ivermectin for 4 h in the presence of 1 mM EDTA or 2500 μunits/ml Apyrase. FIG. 3C: Ivermectin (0.5-32 μM) and high concentrations of extracellular ATP (0.3-3 mM) synergistically open pannexin-1 channels and permeabilize the membrane on live cells (7AAD-positive dead cells were gated out). 4T1.2 cells were treated for 30 min as indicated in the presence of 7 AAD and 5 μM YOPRO-1. FIG. 3D: Analysis of supernatants from Ivermectin-treated murine and human TNBC cells showing rapid release of ATP followed by its transient depletion. Depletion of extracellular ATP with Apyrase (2500 μunits/ml) was used as a positive control. […]
Extracellular ATP release. […] The cancer cells engineered to stably express the membrane-bound Luciferase were treated with Ivermectin for 30 min-4 h and luminescence was measured in the presence of 2 μM Luciferin. ATP concentration in Ivermectin treated supernatants was measured using ATP determination kit (Life Technologies, A22066) following manufacturers' instructions.

## CC[C@H](C)[C@H]1O[C@]2(CC[C@@H]1C)C[C@@H]1C[C@@H](C/C=C(\C)[C@@H](O[C@H]3C[C@H](OC)[C@@H](O[C@H]4C[C@H](OC)[C@@H](O)[C@H](C)O4)[C@H](C)O3)[C@@H](C)/C=C/C=C3\CO[C@@H]4[C@H](O)C(C)=C[C@@H](C(=O)O1)[C@]34O)O2 [Ivermectin]
[1]
  sensitivity of breast cancer cells versus normal cells: higher sensitivity than normal cells
[2]
  killing by combination of Ivermectin and ATP: synergistically kill
4T1.2 cells
  Ivermectin doses giving rapid killing: ≥ 8 µM
[3]
  plasma membrane polarization: plasma membrane hyper-polarization
[4]
  dying cancer cells directly necrotic (7AAD-positive): More than 90%
TNBC cells
  extracellular ATP levels in supernatants: immediate increase in extracellular ATP levels
